# Measured values published in ChEMBL document CHEMBL1275528, “RamA confers multidrug resistance in Salmonella enterica via increased expression of acrB, which is inhibited by chlorpromazine” (2008).
# Legend:
# [1] = Antimicrobial activity against Salmonella serovar Typhimurium SL1344 by broth dilution method; format: functional; conditions: Salmonella enterica
# [2] = Antimicrobial activity against Salmonella serovar Typhimurium SL1344 expressing ramA::aph mutant by broth dilution method; format: functional; conditions: Salmonella enterica
# [3] = Antimicrobial activity against Salmonella serovar Typhimurium SL1344 expressing ramA::aph-pTRC hisA:ramA mutant by broth dilution method; format: functional; conditions: Salmonella enterica
# [4] = Antimicrobial activity against Salmonella serovar Typhimurium SL1344 expressing ramA::aph-pTRC hisA:ramA mutant by broth dilution method in presence of IPTG; format: functional; conditions: Salmonella enterica
# [5] = Antimicrobial activity against Salmonella serovar Typhimurium SL1344 expressing ramA::aph-pTRC hisA:ramA mutant by broth dilution method in presence of chlorpromzine; format: functional; conditions: Salmonella enterica
# Salmonella typhimurium [6] = test: Antimicrobial activity against Salmonella serovar Typhimurium LT2 by broth dilution method; format: functional, Salmonella enterica subsp. enterica serovar Typhimurium; conditions: Salmonella enterica
# Salmonella typhimurium [7] = test: Antimicrobial activity against Salmonella serovar Typhimurium 14028S by broth dilution method; format: functional, Salmonella enterica subsp. enterica serovar Typhimurium; conditions: Salmonella enterica
# [8] = Antimicrobial activity against Salmonella serovar Binza 8269 by broth dilution method; format: functional, Salmonella enterica subsp. enterica serovar Binza; conditions: Salmonella enterica
# Salmonella enteritidis = test: Antimicrobial activity against Salmonella serovar Enteritidis 5188 by broth dilution method; format: functional, Salmonella enterica subsp. enterica serovar Enteritidis; conditions: Salmonella enterica
# [9] = Antimicrobial activity against Salmonella serovar Hadar by broth dilution method; format: functional, Salmonella enterica subsp. enterica serovar Hadar; conditions: Salmonella enterica
# [10] = Antimicrobial activity against Salmonella serovar Heidelberg 5171 by broth dilution method; format: functional, Salmonella enterica subsp. enterica serovar Heidelberg; conditions: Salmonella enterica
# [11] = Antimicrobial activity against Salmonella serovar Haifa 9878 by broth dilution method; format: functional, Salmonella enterica subsp. enterica serovar Haifa; conditions: Salmonella enterica
# [12] = Antimicrobial activity against Salmonella serovar Kedougou by broth dilution method; format: functional, Salmonella enterica subsp. enterica serovar Kedougou; conditions: Salmonella enterica
# [13] = Antimicrobial activity against Salmonella serovar Mbandaka 7892 by broth dilution method; format: functional, Salmonella enterica subsp. enterica serovar Mbandaka; conditions: Salmonella enterica
# [14] = Antimicrobial activity against Salmonella serovar Montevideo 5747 by broth dilution method; format: functional, Salmonella enterica subsp. enterica serovar Montevideo; conditions: Salmonella enterica
# [15] = Antimicrobial activity against Salmonella serovar Newport 129 by broth dilution method; format: functional, Salmonella enterica subsp. enterica serovar Newport; conditions: Salmonella enterica
# [16] = Antimicrobial activity against Salmonella serovar Virchow 5742 by broth dilution method; format: functional, Salmonella enterica subsp. enterica serovar Virchow; conditions: Salmonella enterica
# [17] = Antimicrobial activity against Salmonella serovar Typhimurium SL1344 by broth dilution method in presence of chlorpromazine; format: functional; conditions: Salmonella enterica
# [18] = Antimicrobial activity against Salmonella serovar Typhimurium SL1344 expressing acrB::aph mutant by broth dilution method; format: functional; conditions: Salmonella enterica
# [19] = Antimicrobial activity against Salmonella serovar Typhimurium SL1344 expressing acrD::aph mutant by broth dilution method; format: functional; conditions: Salmonella enterica
# [20] = Antimicrobial activity against Salmonella serovar Typhimurium SL1344 expressing acrF::aph mutant by broth dilution method; format: functional; conditions: Salmonella enterica
# [21] = Antimicrobial activity against Salmonella serovar Typhimurium SL1344 expressing tolC::aph mutant by broth dilution method; format: functional; conditions: Salmonella enterica
# [22] = Antimicrobial activity against Salmonella serovar Typhimurium SL1344 expressing marA::aph mutant by broth dilution method; format: functional; conditions: Salmonella enterica
# [23] = Antimicrobial activity against Salmonella serovar Typhimurium SL1344 expressing soxS::aph mutant by broth dilution method; format: functional; conditions: Salmonella enterica
# [24] = Antimicrobial activity against Salmonella serovar Typhimurium SL1344 assessed as ramA expression at 200 ug/ml; format: functional
# [25] = Antimicrobial activity against Salmonella serovar Typhimurium SL1344 expressing acrB::aph mutant assessed as ramA expression at 200 ug/ml; format: functional
# [26] = Antimicrobial activity against Salmonella serovar Typhimurium SL1344 assessed as acrB expression at 200 ug/ml; format: functional
# [27] = Antimicrobial activity against Salmonella serovar Typhimurium SL1344 expressing ramA::aph mutant assessed as acrB expression at 200 ug/ml; format: functional
Compound,MIC [1] [µg/mL],MIC [2] [µg/mL],MIC [3] [µg/mL],MIC [4] [µg/mL],MIC [5] [µg/mL],MIC [17] [µg/mL],MIC [18] [µg/mL],MIC [19] [µg/mL],MIC [20] [µg/mL],MIC [21] [µg/mL],MIC [22] [µg/mL],MIC [23] [µg/mL],further results
Oc1cc(Cl)ccc1Oc1ccc(Cl)cc1Cl [TRICLOSAN],0.12,0.12,0.25,1,0.25,–,–,–,–,–,–,–,–
CCn1cc(C(=O)O)c(=O)c2cc(F)c(N3CCNCC3)cc21 [NORFLOXACIN],0.06,0.25,0.25,0.25,0.25,0.008,–,–,–,–,–,–,MIC (Salmonella typhimurium [6]): 0.06 µg/mL; MIC (Salmonella typhimurium [7]): 0.06 µg/mL; MIC [8]: 0.06 µg/mL; MIC (Salmonella enteritidis): 0.06 µg/mL; MIC [9]: 0.06 µg/mL; MIC [10]: 0.06 µg/mL; MIC [11]: 0.06 µg/mL; MIC [12]: 0.06 µg/mL; MIC [13]: 0.06 µg/mL; MIC [14]: 0.06 µg/mL; MIC [15]: 0.06 µg/mL; MIC [16]: 0.06 µg/mL
CC[n+]1c(-c2ccccc2)c2cc(N)ccc2c2ccc(N)cc21.[Br-] [HOMIDIUM BROMIDE],1020,1020,2050,2050,512,8,–,–,–,–,–,–,MIC (Salmonella typhimurium [6]): 1020 µg/mL; MIC (Salmonella typhimurium [7]): 2050 µg/mL; MIC [8]: 1020 µg/mL; MIC (Salmonella enteritidis): 1020 µg/mL; MIC [9]: 1020 µg/mL; MIC [10]: 512 µg/mL; MIC [11]: 1020 µg/mL; MIC [12]: 512 µg/mL; MIC [13]: 1020 µg/mL; MIC [14]: 1020 µg/mL; MIC [15]: 1020 µg/mL; MIC [16]: 1020 µg/mL
O=C(O)c1cn(C2CC2)c2cc(N3CCNCC3)c(F)cc2c1=O [CIPROFLOXACIN],0.03,0.03,0.03,0.03,0.015,0.008,–,–,–,–,–,–,–
CN(C)CCC=C1c2ccccc2CCc2ccccc21 [AMITRIPTYLINE],512,512,–,–,–,–,256,1020,512,256,512,512,–
Cc1ccccc1C(OCCN(C)C)c1ccccc1 (stereo not drawn) [ORPHENADRINE],1020,1020,–,–,–,–,1020,1020,1020,1020,1020,1020,–
O=C(N[C@H](CO)[C@H](O)c1ccc([N+](=O)[O-])cc1)C(Cl)Cl [CHLORAMPHENICOL],4,4,8,32,16,0.015,–,–,–,–,–,–,–
CN1CCN(CCCN2c3ccccc3Sc3ccc(C(F)(F)F)cc32)CC1 [TRIFLUOPERAZINE],1020,1020,–,–,–,–,64,1020,1020,32,1020,1020,–
CN(C)c1ccc2cc3ccc(N(C)C)cc3nc2c1 [ACRIDINE ORANGE],512,256,256,512,512,512,–,–,–,–,–,–,–
CSc1ccc2c(c1)N(CCC1CCCCN1C)c1ccccc1S2 (stereo not drawn) [THIORIDAZINE],1020,1020,–,–,–,–,32,1020,1020,32,1020,1020,–
CCn1cc(C(=O)O)c(=O)c2ccc(C)nc21 [NALIDIXIC ACID],4,4,16,64,16,–,–,–,–,–,–,–,–
CO[C@@H]1[C@@H](OC(N)=O)[C@@H](O)[C@H](Oc2ccc3c(O)c(NC(=O)c4ccc(O)c(CC=C(C)C)c4)c(=O)oc3c2C)OC1(C)C [NOVOBIOCIN],512,256,512,1020,512,64,–,–,–,–,–,–,–
CN(C)[C@@H]1C(O)=C(C(N)=O)C(=O)[C@@]2(O)C(O)=C3C(=O)c4c(O)cccc4[C@@](C)(O)[C@H]3C[C@@H]12 [TETRACYCLINE],2,2,4,16,8,0.25,–,–,–,–,–,–,–
CN(C)c1ccc(C(=C2C=CC(=[N+](C)C)C=C2)c2ccc(N(C)C)cc2)cc1.[Cl-] [GENTIAN VIOLET],2,2,2,2,0.5,1,–,–,–,–,–,–,–
CN(C)CCCN1c2ccccc2Sc2ccc(Cl)cc21 [CHLORPROMAZINE],512,256,512,512,–,–,32,128,128,32,256,256,fold change (FC) [24]: 0.4; fold change (FC) [25]: 0.7; fold change (FC) [26]: 2.6; fold change (FC) [27]: 1.6
